Our source for the T/C values is PubChem BioAssay AID266 (DTP/NCI, 2004).

SMILES strings stand for the structures. Several values for one entry are separate records, joined by “and”; a condition that tells them apart may be missing. Identical values can stand only once. Records with an inconclusive call do not appear.

This assay concerns Nude mice, LX-1 lung xenograft intrarenal, tumor weight T/C. Kind of assay: NCI In Vivo Anticancer Drug Screen. Data for tumor model Human Lung LX-1 Xenograft (intrarenal inoculation) in NU/NU BALB/C (nude) mice. The conditions noted are these: endpoint: mean tumor weight change, higher = larger tumour. The method, then:
The antitumor activity of compounds was measured in mice bearing transplantable tumors. Survival or tumor size were measured and the results are expressed as the measurement made in the treated group (T) divided by the measurement made in the vehicle treated control group (C). The tumor model used in this assay is Human Lung LX-1 Xenograft (intrarenal inoculation) in NU/NU BALB/C (nude) mice
On the technique in general: Xenograft models place foreign cells or tissue in a host animal.

Where [1] appears, read: dose: 1.0 mg/kg/injection, schedule: Q01DX010 (sc), vehicle: saline.
Setting [2] is: dose: 2.0 mg/kg/injection, schedule: Q01DX010 (sc), vehicle: saline.
Setting [3] is: dose: 200.0 mg/kg/injection, schedule: Q04DX003 (sc), vehicle: saline with Tween-80.
Setting [4] is: dose: 400.0 mg/kg/injection, schedule: Q04DX003 (sc), vehicle: saline with Tween-80.
Setting [5] is: dose: 100.0 mg/kg/injection, schedule: Q01DX010 (sc), vehicle: saline with Tween-80.
Setting [6] is: dose: 200.0 mg/kg/injection, schedule: Q01DX010 (sc), vehicle: saline with Tween-80.
Setting [7] is: dose: 100.0 mg/kg/injection, schedule: Q04DX003 (sc), vehicle: saline.
Setting [8] is: dose: 200.0 mg/kg/injection, schedule: Q04DX003 (sc), vehicle: saline.

For the molecule `O=NN(CCCl)C(=O)NCCCl`, the T/C runs as follows: (dose: 4.0 mg/kg/injection, schedule: Q01DX010 (ip), vehicle: saline) 32 % of control and 48 % of control; (dose: 13.33 mg/kg/injection, schedule: Q04DX003 (ip), vehicle: saline) 9 % of control and 10 % of control; (dose: 16.0 mg/kg/injection, schedule: Q01DX010 (ip), vehicle: saline) -69 % of control and -87 % of control; (dose: 26.66 mg/kg/injection, schedule: Q04DX003 (ip), vehicle: saline) -21 % of control.

Take `N#Cc1cn(C2OC(CO)C(O)C2O)c2ncnc(N)c12` (configuration not stated): the T/C by setting is: under setting [1], 26 % of control; under setting [2], 77 % of control.

`Cc1cc(NCCCCCCCCNc2cc(C)nc3cc(N(C)C)ccc23)c2ccc(N(C)C)cc2n1`: the T/C is 51 % of control (dose: 37.5 mg/kg/injection, schedule: Q01DX010 (sc), vehicle: distilled water + Tween-80 + alcohol); 64 % of control (dose: 75.0 mg/kg/injection, schedule: Q04DX003 (sc), vehicle: distilled water + Tween-80 + alcohol); 46 % of control (dose: 150.0 mg/kg/injection, schedule: Q04DX003 (sc), vehicle: distilled water + Tween-80 + alcohol); 13 % of control (dose: 300.0 mg/kg/injection, schedule: Q04DX003 (sc), vehicle: distilled water + Tween-80 + alcohol).

Take `Nc1nnc[se]1`: the T/C was 82 % of control (dose: 100.0 mg/kg/injection, schedule: Q04DX003 (sc), vehicle: saline with Tween-80); 40 % of control under setting [3]; 30 % of control under setting [4].

In the case of `Cc1ccoc1`, the T/C (dose: 50.0 mg/kg/injection, schedule: Q01DX010 (ip), vehicle: saline with Tween-80) was 109 % of control; the T/C (dose: 100.0 mg/kg/injection, schedule: Q01DX010 (ip), vehicle: saline with Tween-80) was 93 % of control; the T/C (dose: 200.0 mg/kg/injection, schedule: Q01DX010 (ip), vehicle: saline with Tween-80) was 163 % of control; the T/C (dose: 400.0 mg/kg/injection, schedule: Q01DX010 (ip), vehicle: saline with Tween-80) was 80 % of control.

With `Cn1cnc([N+](=O)[O-])c1[Se]c1nc(N)nc2nc[nH]c12`, the T/C runs as follows: (dose: 50.0 mg/kg/injection, schedule: Q01DX010 (sc), vehicle: water) 64 % of control; (dose: 100.0 mg/kg/injection, schedule: Q01DX010 (sc), vehicle: water) 69 % of control.

Turning to `Nc1ccc(Cn2ccc3c4c(N)nc(N)nc4ccc32)cc1`, the T/C is, setting by setting: (dose: 9.38 mg/kg/injection, schedule: Q04DX003 (sc), vehicle: saline with Tween-80) 68 % of control; (dose: 18.75 mg/kg/injection, schedule: Q04DX003 (sc), vehicle: saline with Tween-80) 51 % of control; (dose: 37.5 mg/kg/injection, schedule: Q04DX003 (sc), vehicle: saline with Tween-80) 52 % of control.

On to `CN(C)c1nc(N(C)C)nc(N(C)C)n1`, for which the T/C is, setting by setting: (dose: 12.5 mg/kg/injection, schedule: Q01DX010 (sc), vehicle: saline with Tween-80) 63 % of control; (dose: 25.0 mg/kg/injection, schedule: Q01DX010 (sc), vehicle: saline with Tween-80) 95 % of control; (dose: 60.0 mg/kg/injection, schedule: Q01DX010 (sc), vehicle: saline with Tween-80) 51 % of control; under setting [5], 121 % of control; (dose: 120.0 mg/kg/injection, schedule: Q01DX010 (sc), vehicle: saline with Tween-80) 58 % of control; under setting [6], 74 % of control.

With `CN(N=O)C(=O)N[C@@H](C=O)[C@@H](O)[C@H](O)[C@H](O)CO`, the T/C (dose: 150.0 mg/kg/injection, schedule: Q04DX003 (sc), vehicle: saline) is 40 % of control and the T/C (dose: 300.0 mg/kg/injection, schedule: Q04DX003 (sc), vehicle: saline) was 4 % of control.

On to `CC(=O)OC1C(O)C(C)OC(OC2C(OC(=O)C3CCC4C(C3)OC3(CC(OC(=O)/C=C/c5ccccc5)C(C)CO3)C43CO3)OC(C)C(O)C2OC(C)=O)C1O` (configuration not stated), for which the T/C (dose: 37.5 mg/kg/injection, schedule: Q04DX003 (sc), vehicle: distilled water + Tween-80) was 121 % of control and the T/C (dose: 75.0 mg/kg/injection, schedule: Q04DX003 (sc), vehicle: distilled water + Tween-80) was 63 % of control.

For `N[C@@H](Cc1ccc(N(CCCl)CCCl)cc1)C(=O)O`, the T/C reads like this: under setting [1], 94 % of control; under setting [2], 47 % of control; (dose: 4.0 mg/kg/injection, schedule: Q01DX010 (sc), vehicle: saline) 13 % of control; (dose: 8.0 mg/kg/injection, schedule: Q01DX010 (sc), vehicle: saline) -19 % of control.

For the molecule `Nc1ncn(C2OC(CO)C(O)C2O)c(=O)n1` (configuration not stated), the T/C (dose: 5.0 mg/kg/injection, schedule: Q04DX003 (sc), vehicle: saline) is 47 % of control; the T/C (dose: 10.0 mg/kg/injection, schedule: Q04DX003 (sc), vehicle: saline) was 39 % of control; the T/C under setting [7] was 34 % of control; the T/C under setting [8] is 18 % of control and 28 % of control; the T/C (dose: 400.0 mg/kg/injection, schedule: Q04DX003 (sc), vehicle: saline) was 15 % of control and 32 % of control; the T/C (dose: 1600.0 mg/kg/injection, schedule: Q04DX003 (sc), vehicle: saline) is -72 % of control.

Consider `NC(CNC(=O)CBr)C(=O)O` (configuration not stated), for which the T/C was 105 % of control (dose: 75.0 mg/kg/injection, schedule: Q04DX003 (sc), vehicle: water) and 79 % of control (dose: 150.0 mg/kg/injection, schedule: Q04DX003 (sc), vehicle: water).

Consider `CC[As](=O)(O)CC`, for which the T/C reads like this: (dose: 25.0 mg/kg/injection, schedule: Q04DX003 (sc), vehicle: saline) 77 % of control; (dose: 50.0 mg/kg/injection, schedule: Q04DX003 (sc), vehicle: saline) 82 % of control; under setting [7], 51 % of control; under setting [8], 70 % of control.

For the molecule `FC(F)(F)c1nc2nc(Cl)c(Cl)nc2[nH]1`, the T/C was 116 % of control (dose: 75.0 mg/kg/injection, schedule: Q04DX003 (sc), vehicle: saline with Tween-80); 74 % of control (dose: 150.0 mg/kg/injection, schedule: Q04DX003 (sc), vehicle: saline with Tween-80); 68 % of control (dose: 300.0 mg/kg/injection, schedule: Q04DX003 (sc), vehicle: saline with Tween-80).

On to `OC1(CSc2ccccc2)CCCCC1`, for which the T/C runs as follows: under setting [3], 75 % of control; under setting [4], 85 % of control; (dose: 800.0 mg/kg/injection, schedule: Q04DX003 (sc), vehicle: saline with Tween-80) 82 % of control; (dose: 1600.0 mg/kg/injection, schedule: Q04DX003 (sc), vehicle: saline with Tween-80) 90 % of control.

With `CCOC(=O)c1c[nH]c2oc(/C=N/N3CC(CN4CCOCC4)OC3=O)cc2c1=O` (configuration not stated), the T/C is, setting by setting: (dose: 50.0 mg/kg/injection, schedule: Q01DX010 (sc), vehicle: saline) 81 % of control; (dose: 200.0 mg/kg/injection, schedule: Q01DX010 (sc), vehicle: saline) 118 % of control.

Take `CCCNC1=C(C)C(=O)C2=C(C1=O)[C@H](COC(N)=O)[C@]1(OC)[C@@H]3N[C@@H]3CN21`: the T/C (dose: 12.0 mg/kg/injection, schedule: Q04DX003 (sc), vehicle: saline + alcohol) was 52 % of control and the T/C (dose: 24.0 mg/kg/injection, schedule: Q04DX003 (sc), vehicle: saline + alcohol) was 8 % of control.

Regarding `CC(C)CCCCCCCCCCCCC(=O)NCC(=O)NC1C(O)C(O)C(Nc2ncnc3nc[nH]c23)OC1C(O)CO` (configuration not stated), the T/C is 98 % of control (dose: 0.4 mg/kg/injection, schedule: Q01DX010 (sc), vehicle: saline) and 24 % of control (dose: 0.8 mg/kg/injection, schedule: Q01DX010 (sc), vehicle: saline).

In the case of `COc1ccc(OC)c(/C=C/c2ccnc3ccccc23)c1`, the T/C is 65 % of control (dose: 50.0 mg/kg/injection, schedule: Q01DX010 (sc), vehicle: saline with Tween-80); 152 % of control under setting [5]; 251 % of control under setting [6]; 121 % of control (dose: 400.0 mg/kg/injection, schedule: Q01DX010 (sc), vehicle: saline with Tween-80).

As to `O=C(Nc1cc(Cl)ccc1C(=O)O)c1cccc(C[n+]2ccccc2)c1`, the T/C is 67 % of control (dose: 150.0 mg/kg/injection, schedule: Q04DX003 (ip), vehicle: saline with Tween-80) and 100 % of control (dose: 300.0 mg/kg/injection, schedule: Q04DX003 (ip), vehicle: saline with Tween-80).
